Experimental data: patent US10905121B2, “Method for controlling PPO resistant weeds” (BASF SE, priority 2016, dated 2021)

Experiments:
[1] = test system: Amaranthus tamariscinus (AMATA, common waterhemp), Sensitive biotype (w.1); assay: greenhouse herbicidal activity test, weed w.1; assay type: in vivo; details: scale 0 (no damage) to 100 (complete destruction)
Description: (§1) The culture containers used were plastic flowerpots containing loamy sand with approximately 3.0% of humus as the substrate. The seeds of the test plants were sown separately for each species and/or resistant biotype. For the pre-emergence treatment, the active ingredients, which had been suspended or emulsified in water, were applied directly after sowing by means of finely distributing nozzles. The containers were irrigated gently to promote germination and growth and subsequently covered with transparent plastic hoods until the plants had rooted. This cover caused uniform germination of the test plants, unless this had been impaired by the active ingredients. For the post-emergence treatment, the test plants were first grown to a height of 3 to 15 cm, depending on the plant habit, and only then treated with the active ingredients which had been suspended or emulsified in water. For this purpose, the test plants were either sown directly and grown in the same containers, or they were first grown separately as seedlings and transplanted into the test containers a few days prior to treatment. Depending on the species, the plants were kept at 10-25° C. or 20-35° C., respectively. The test period extended over 2 to 4 weeks. During this time, the plants were tended, and their response to the individual treatments was evaluated. The evaluation was carried out by using a scale from 0 to 100. […]

[2] = test system: Amaranthus tamariscinus (AMATA, common waterhemp), PPO resistant biotype 1 (w.2); assay: greenhouse herbicidal activity test, weed w.2; assay type: in vivo; details: scale 0 to 100
Description: as §1

[3] = test system: Amaranthus tamariscinus (AMATA, common waterhemp), PPO resistant biotype 2 (w.3); assay: greenhouse herbicidal activity test, weed w.3; assay type: in vivo; details: scale 0 to 100
Description: as §1

[4] = test system: Amaranthus tamariscinus (AMATA, common waterhemp), PPO resistant biotype 3 confirmed to contain the ΔG210 mutation (w.4); assay: greenhouse herbicidal activity test, weed w.4; assay type: in vivo; details: PPO resistant biotype 3 (ΔG210), scale 0 to 100
Description: as §1

[5] = test system: Amaranthus tamariscinus (AMATA, common waterhemp), PPO resistant biotype 4 confirmed to contain the ΔG210 mutation (w.5); assay: greenhouse herbicidal activity test, weed w.5; assay type: in vivo; details: PPO resistant biotype 4 (ΔG210), scale 0 to 100
Description: as §1

[6] = test system: sensitive (w.1) and resistant weeds (w.2 to w.5); assay: greenhouse herbicidal activity test, summary over all biotypes; assay type: in vivo, Amaranthus tamariscinus; details: w.1 to w.5, including those shown to contain the ΔG210 mutation
Description: as §1

SMILES: C=CCOC(=O)C(C)(C)OC(=O)c1cc(-n2c(=O)cc(C(F)(F)F)n(C)c2=O)ccc1Cl [(I).1, butafenacil]
- Weed control (%) w.1 ([1]; use rate 4 g/ha): 100%
- Weed control (%) w.1 ([1]; use rate 8 g/ha): 100%
- Weed control (%) w.2 ([2]; use rate 4 g/ha): 100%
- Weed control (%) w.2 ([2]; use rate 8 g/ha): 100%
- Weed control (%) w.3 ([3]; use rate 4 g/ha): 100%
- Weed control (%) w.3 ([3]; use rate 8 g/ha): 100%
- Weed control (%) w.4 ([4]; use rate 4 g/ha): 80%
- Weed control (%) w.4 ([4]; use rate 8 g/ha): 85%
- Weed control (%) w.5 ([5]; use rate 4 g/ha): 80%
- Weed control (%) w.5 ([5]; use rate 8 g/ha): 83%
- activity on sensitive and resistant weeds (in words) [6]: very good activity
